≈ marks a conversion by molar mass, not a printed value.
How the values were obtained:
[1] = Bioavailability (F) in the rat; format: in vivo; conditions: plasma, 3 mg/kg; male rat, oral vs iv AUC, dose normalised
Source text: Bioavailability (F) in the Rat
This describes the methods used to obtain in vivo pharmacokinetic parameters in the male rat. It is applicable for use with any compound but may need modification based on such parameters as solubility, assay sensitivity, anticipated clearance and half-life, when the default formulation, dose level or sampling intervals may be inappropriate. The method described here represents a standard approach from which justified and documented modifications can be made. This method also allows for single compounds or mixtures (cassettes) to be administered.
A standard dose solution of 1 mg·mL^−1 was prepared. The recommended dose vehicle (if the compound was not sufficiently soluble in isotonic saline) was 50% PEG 400:50% sterile water. The required mass of compound was dissolved in the PEG400 before addition of the water. […]
The concentration of the analyte(s) were determined in plasma quantitative by mass spectrometry.
Pharmacokinetic data analysis and tabulation was achieved using WinNonlin and Excel. […] Bioavailability (F) was calculated from the ratio of the iv and oral AUC (the integral of the plasma concentration time curve) once dose normalised.

[2] = Measurement of solubility (S); format: physicochemical; conditions: thermodynamic from solid; saturated solution, shaken overnight at 20° C.
Source text: Measurement of Solubility (S)
The solubility of a compound is an important property affecting the preparation of solutions of the compound for screening, as well as influencing absorption of solid doses of the compound in animal and human studies. The method described below for measuring the solubility involves the generation of a saturated solution of the compound, followed by assaying the solution using HPLC with UV quantification and MS identification.
Saturated solutions for determining the solubility were prepared by placing about 0.3-3.0 ml of solvent in glass screw-top sample tubes along with some of the compound. The tubes are then shaken overnight in the constant temperature room (20° C.). After shaking, undissolved material should be present in the solution, and more was added and shaking continued if this was not the case. The samples were then transferred to a centrifuge tube and centrifuged using a Heraeus Biofuge Fresco centrifuge at 13000 rpm for about 30 minutes. The supernatant was then removed, placed in a new centrifuge tube and centrifuged again for about 30 minutes at 13000 rpm. The undissolved material formed a pellet at the bottom of the tube and the liquid above the pellet was removed for assaying. The solution was then analysed using HPLC with UV quantification. If the response for the compound is very strong then the solution should be accurately diluted such that the response lies within a more suitable range of UV response. A standard was also prepared by accurately weighing a sample of the compound and dissolving it in a suitable volume of a solvent that dissolves it completely (typically, DMSO, ethanol or methanol). This sample was then analysed by HPLC/UV. Again the response of this standard should lie within a suitable range of UV response otherwise a more appropriate concentration should be prepared and analysed by HPLC/UV.
The solubility (S) was calculated from the observed peak areas in the HPLC/UV chromatograms along with corrections for any dilutions of the sample and differences in injection volumes. The following equation was used: […]

bioavailability [1] [%]	solubility [2] [µg/mL]	melting point [°C]	Structure (SMILES)
49	317 (≈ 667 µM)	116 to 116.5	C[C@@H](Nc1cc(NS(=O)(=O)N2CCC2)nc(SCc2cccc(F)c2F)n1)[C@@H](O)CO [Example 1, N-(2-[(2,3-difluorobenzyl)thio]-6-{[(1R,2R)-2,3-dihydroxy-1-methylpropyl]amino}pyrimidin-4-yl)azetidine-1-sulfonamide]
44	342 (≈ 854 µM)		Cc1cccc(CSc2nc(N[C@H](C)CO)cc(NS(C)(=O)=O)n2)c1F [Example 39]
	372 (≈ 817 µM)		Cc1ccc(CSc2nc(N[C@H](C)CO)cc(NS(=O)(=O)N3CCC3)n2)c(F)c1C [Example 41]
